From patent US10071951B2, “Liquid cation exchanger” (Evonik Degussa GmbH, priority 2011, dated 2018)

How the values were obtained:
[1] = system: E. coli strain BL21 (DE3) Tlr pBT10 pACYC:Duet[TAcv]; experiment: Toxicity of liquid cation exchangers in fermentation, oxygen transfer rate (OTR) (Example 5); type: cell-based; conditions: ion exchanger 10% w/w in methyl laurate; for toxic effect on cells judged from the OTR curve: 150 mL added to fermentation broth, 22 h
Method: The biotransformation of methyl laurate to methyl aminolaurate was tested in an 8-fold parallel fermentation system from DasGip with different ion exchangers.
1 L reactors were used for the fermentation. The pH probes were calibrated using a two-point calibration with measurement solutions of pH 4.0 and pH 7.0. The reactors were filled with 300 mL of water and autoclaved for 20 min at 121° C. in order to ensure sterility. The pO2 probes were then polarized overnight (at least 6 h). On the next morning, the water was removed under the clean bench and replaced by high cell density medium with 50 mg/L kanamycin and 34 mg/L chloramphenicol. Subsequently, the pO2 probes were calibrated with a one-point calibration (stirrer: 600 rpm/gassing: 10 sL/h air) and the feed, correctant and induction means stretches were cleaned by means of clean-in-place. For this, the tubes were flushed with 70% ethanol, then with 1 M NaOH, then with sterile demineralised water, and finally filled with the respective media.
The ALS and ALSME producing E. coli strain BL21 (DE3) Tlr pBT10 pACYC:Duet[TAcv] was firstly grown from cryoculture in LB medium (25 mL in a 100 mL baffled flask) with 50 mg/L kanamycin and 34 mg/L chloramphenicol overnight at 37° C. and 200 rpm for ca. 18 h.
The 3 cultures were combined in a shake flask and the optical density was determined at 7.2. In order to inoculate the reactors with an optical density of 0.1, in each case 4.2 mL were drawn up in a 5 mL syringe and the reactors were inoculated by means of canulae via a septum.
The experiment carried out can be divided into two phases, the cultivation during which the cells should reach a certain optical density, and the subsequent biotransformation during which the expression of the genes required for the biotechnological process for producing ALSME was induced. The pH values were regulated to pH 6.8 on the one hand with ammonia (12.5%). During cultivation and biotransformation, the dissolved oxygen (DO) in the culture was regulated at 30% via stirrer speed and gassing rate. The fermentation was carried out as a feed batch, where the feed start, 5 g/Lh glucose feed (500 g/L glucose with 1% MgSO4*7H2O and 2.2% NH4Cl), was triggered via a DO peak. […] The expression of the transaminase was induced 2 h after feed start via the automatic addition of IPTG (1 mM). The induction of the alk-genes was carried out by the manual addition of DCPK (0.025% v/v) 10 h after feed start. Before the start of the biotransformation, the optical density of the culture broths was determined.
The start of the biotransformation phase was carried out 14 h after feed start. For this, 150 mL of a mixture of methyl laurate and the respective ion exchanger (10% w/w) were added as a batch to the fermentation broth. The ion exchangers used were di(2-ethylhexyl)phosphoric acid (DEHPA), lauric acid, oleic acid, palmitic acid, palmitoleic acid, stearic acid and a mixture of free fatty acids from the saponification of globe thistle oil. In order to provide an amino group donor for the transaminase, at the same time as the addition of the organic phase, 10.7 mL of an alanine solution (125 g/L) were added to the fermentation broth. For the sampling, 2 mL of fermentation broth were removed from the reactor and part of it was diluted 1/20 in an acetone/HCl mixture (c(HCl)=0.1 mol/L) and extracted. Samples were taken from all 8 reactors at 1.25 h, 3 h, 5 h, 20 h, 22 h […] after the start of the biotransformation. The transfer rates for oxygen (OTR=oxygen transfer rate) and carbon (CTR=carbon transfer rate) were determined during the fermentation via offgas analysis on the DasGip systems. The fermentation was ended 22 h after the start of the biotransformation.

[2] = system: E. coli BL21(DE3); experiment: Toxicity of liquid cation exchangers, CFU determination (Example 2)
Text: 50% DEHPA and lauric acid (15%), each dissolved in LSME and laden equimolar or 25 mol % with ALSME, were contacted as liquid cation exchanger with a E. coli BL21 (DE3) strain, and the influence of these two compounds on the ability of the strain to form colonies, expressed in CFUs, was investigated.

[3] = system: E. coli W3110; experiment: Reduction in the toxicity of ALSME by contacting with a liquid cation exchanger, CFU determination (Example 4); conditions: ALSME 0.2% (w/v) dissolved in aqueous systems, no organic phase
Method: Before the determination of the CFU was able to be carried out, a plate LB (10 g/L peptone from casein, 5 g/L yeast extract, 10 g/L NaCl) was streaked with E. coli BW3110 and incubated for 24 h. On the evening of the following day, a preculture was inoculated from this previously streaked plate. […] After the incubation of the main culture, the cells were harvested, centrifuged at 5258 g and 4° C. for 10 min and resuspended with an OD600 of 30 in 10 mL 50 mM Kp, buffer at pH 7.4 (or 25 mM HEPES buffer pH 7.4 if CFU determinations were carried out with ALSME). Both buffer solutions used contained 5% glucose (w/v). The bacteria suspension was then transferred to the shake flasks and treated with the respective substance solutions. After thorough mixing has taken place by swirling the flask, 100 μL of the suspension was pipetted out and placed into 900 μL, of previously charged sterile saline. This corresponded to sampling at time point t0. Then followed incubation of the preparations at 250 rpm and 30° C. The CFUs were determined over a period of 22 h. The samples were taken firstly at time points t0, t3, t6 and t22. For some preparations, a further sampling time point t15 was added and, in addition to this, a further additional dilution series was plated out in order to minimize deviations.
The bacteria were firstly resuspended in 5 mL (corresponds to half of the buffer volume). […]

[4] = system: E. coli W3110; conditions: culture covered with identical volume of solvent, oleic acid volume adapted with LSME
Method: Firstly, a preculture comprising 20 ml LB medium was inoculated in a 100 ml baffled flask with a cryoculture of the corresponding strain. The culture was cultured overnight at 37° C. and with shaking at 200 rpm used on the next day in order to inoculate an identical main culture to an OD of 0.2. The main cultures (each 30 mL of LB medium) were then further incubated under identical conditions. At an OD of 0.4 to 0.5, the main culture was covered with in each case identical volumes (30 ml) of solvent and then further incubated.
To determine the number of CFU (colony-forming units) 0.1 ml samples were taken in the following experiments and diluted in sterile 0.9% NaCl solution. Suitable dilution stages were plated out on LB agar plates. After incubation at 34° C. overnight, the colonies formed were counted and the CFUs determined.
For this, two different concentrations of oleic acid were used and the volume was adapted by adding the corresponding amount of LSME (methyl laurate).
On account of the lower solubility of the unsaturated fatty acid lauric acid, this was used in a smaller amount. The volumes of the different cation exchangers were made the same with the LSME. The number of CFUs was determined at the start, after 4.5 h and after 24 h.

[5] = Removal (reactive extraction) of DAI and DAS from an aqueous phase into a hydrophobic organic phase (Example 3); type: physicochemical
Text: The organic solvents used here are kerosene (K), benzyl benzoate (B), methyl laurate (ML), cis-9-ocitadecen-1-ol (OD). As liquid cation exchangers, oleic acid and D2EHPA were compared in terms of their effect with the respective pure solvent.
The experimental procedure proceeded identically in all cases: the aqueous phase comprised 2% by weight of diamine and the organic phase consisted of the corresponding solvent and 20% by weight of the respective liquid cation exchanger. The volume ratio of the two phases was 1:1 (in each case 4.5 ml). At a constant temperature of T=30° C., the samples were shaken for 2 hours in a water bath. Then, after centrifugation and phase separation, the phases were analyzed. The pH was adjusted in all cases with aqueous ammonia or sulphuric acid.

[6] = system: E. coli BW3110; experiment: Toxicity of the solvent LSME, CFU determination (Example 1); type: cell-based; conditions: cells OD600 60 in 10 mL Kp buffer mixed with 5 mL LSME 98% (w/w), 30° C.
Method: The OD600 was 60. […] One dilution stage per preparation was plated out.

[7] = E. coli BL21(DE3), culture covered with identical volume of solvent, oleic acid volume adapted with LSME
[8] = oleic acid 20% by weight, solvent methyl laurate, pH lowered with sulphuric acid

CCCCCC/C=C\CCCCCCCC(=O)O [palmitoleic acid]
toxic effect on cells judged from the OTR curve [1]: even lower toxicity than the saturated fatty acids

CCCCC(CC)COP(=O)(O)OCC(CC)CCCC (centres unmarked) [DEHPA, di(2-ethylhexyl)phosphoric acid, reference compound]
Number of CFUs after 22 or 24 h relative to t = 0 h ([2]; E. coli): 0% | toxic effect on cells judged from the OTR curve [1]: high grade toxic effect | OTR after adding the compound to the culture ([1]; 150 mL, within a short time): 0

CCCCCCCCCCCCCCCCCC(=O)O [stearic acid]
toxic effect on cells judged from the OTR curve [1]: considerably lower toxic effect

COC(=O)CCCCCCCCCCCN [ALSME, methyl 12-aminolaurate]
effect on the bacteria [3]: bactericidal effect

CCCCCCCCCCCCCCCC(=O)O [palmitic acid]
toxic effect on cells judged from the OTR curve [1]: considerably lower toxic effect

CC(C)CCCCCC(=O)O [Isononanoic acid]
Number of CFUs after 22 or 24 h relative to t = 0 h [2, 7]: 0% | Number of CFUs after 22 or 24 h relative to t = 0 h [4]: 0%

CCCCC(CC)C(=O)O (centres unmarked) [2-Ethylhexanoic acid]
Number of CFUs after 22 or 24 h relative to t = 0 h [2, 7]: 0% | Number of CFUs after 22 or 24 h relative to t = 0 h [4]: 0%

CCCCCCCCCCCC(=O)O [Lauric acid]
Number of CFUs after 22 or 24 h relative to t = 0 h ([2]; E. coli): 1.2% | toxic effect on cells judged from the OTR curve [1]: notably less toxic than DEHPA

NC1COC2C(N)COC12 (centres unmarked) [DAS, diaminoisosorbitol]
maximum degree of extraction [5, 8]: 4% | maximum degree of extraction ([5]; oleic acid, solvent benzyl benzoate, pH 7.3): 61.5% | maximum degree of extraction ([5]; oleic acid, solvent cis-9-octadecen-1-ol, pH 6 (starting pH reduced with H2SO4)): 5.5% | maximum degree of extraction ([5]; oleic acid, solvent kerosene, pH 8.5): 85%

CCCCCCCCCCCC(=O)OC [LSME, methyl laurate]
percentage decrease in living cell count ([6]; after 22 h): 30.3% | number of CFU/mL ([6]; over a period of 6 h): remained constant | tolerance by the strains used ([2]; preliminary experiments): well tolerated

NC1COC2C(N)COC12 (centres unmarked) [DAI, diaminoisoiditol]
degree of extraction ([5]; D2EHPA 20% by weight as liquid cation exchanger, without addition of acid or alkali, pH range 5.4 to 6.2, 30° C., 2 h, phases 1:1): ca. 100% | maximum degree of extraction [5, 8]: 48% | maximum degree of extraction ([5]; oleic acid, solvent benzyl benzoate, pH 1.1): 15.3 | maximum degree of extraction ([5]; oleic acid, solvent cis-9-octadecen-1-ol, pH 7.9, neither alkali nor acid added): 85% | maximum degree of extraction ([5]; oleic acid, solvent kerosene, pH 8.4): 77.5%

CCCCCCCC/C=C\CCCCCCCC(=O)O [oleic acid]
toxic effect on cells judged from the OTR curve [1]: even lower toxicity than the saturated fatty acids
